Reference: patent US20210198204A1, “PRODRUGS OF KALLIKREIN INHIBITORS” (BioCryst Pharmaceuticals, Inc., priority 2016, published 2021)

Test: Plasma pharmacokinetics of the parent compound after a single oral dose of prodrug
Type: in vivo
Settings: single oral dose 10 mg/kg, fasted male Sprague Dawley rats; plasma analyzed for the parent compound; study duration 8 h
Description: Plasma pharmacokinetics of compounds was determined using three male Sprague Dawley rats following a single oral dose administration. All animals were placed in a rat metabolic cage, isolated, and fasted approximately 15 hours prior to dosing. Identifying markers were placed on each animal. Each animal was weighed prior to dose administration. Animals were administered orally with a solution formulation of test compound either in water or a combination of water/propylene glycol, at a dose of 10 mg/kg. Gavage needles were attached to syringes and filled with appropriate amount of test article to be dosed. Blood samples (approximately 500 μL) were collected from three rats at pre-dose (time 0), 0.5, 1, 2, 4, 8, 12 and 24 hr, respectively, depending on study duration. Samples were collected into labeled micro centrifuge tubes containing (heparin solution) as an anticoagulant. Plasma was immediately harvested from the blood by centrifugation at 14,000 rpm for 3 min at 4° C., and stored below −70° C. until bioanalysis. Individual plasma samples were analyzed for the parent compound, 3-[2-(4-carbamimidoyl-phenylcarbamoyl)-5-methoxy-4-vinyl-phenyl]-6-(cyclopropylmethyl-carbamoyl)-pyridine-2-carboxylic acid. As shown in Table-1, the test compounds yielded varying degrees of exposure to the parent compound. The test compounds generally provided for improved bioavailability of the parent compound as compared to dosing of the parent compound in aqueous solutions.

AUC0-last hour (area under the curve) | Compound
B (B = 1,001-10,000 ng/mL) | C=Cc1cc(C(=O)Nc2ccc(C(=N)NC(=O)OC(C)OC(=O)[C@@H](N)C(C)C)cc2)c(-c2ccc(C(=O)NCC3CC3)nc2C(=O)OC(C)OC(=O)C(C)C)cc1OC (stereo partly drawn) [Compound 55b, 1-(isobutyryloxy)ethyl 3-(2-((4-(N-((1-(((S)-2-amino-3-methylbutanoyl)oxy)ethoxy)carbonyl)carbamimidoyl)phenyl)carbamoyl)-5-methoxy-4-vinylphenyl)-6-((cyclopropylmethyl)carbamoyl)picolinate]
C (C >10,000 ng/mL) | C=Cc1cc(C=O)c(-c2ccc(C(=O)NCC3CC3)nc2C(=O)OC(OC(=O)C(C)(C)C)C(C)C)cc1OC (stereo not drawn) [Compound 56b, 2-methyl-1-(pivaloyloxy)propyl 6-((cyclopropylmethyl)carbamoyl)-3-(2-formyl-5-methoxy-4-vinylphenyl)picolinate]
B (B = 1,001-10,000 ng/mL) | C=Cc1cc(C(=O)Nc2ccc(C(=N)NC(=O)OCCCCCC)cc2)c(-c2ccc(C(=O)NCC3CC3)nc2C(=O)OC(OC(=O)C(C)(C)C)C(C)C)cc1OC (stereo not drawn) [Compound 57a, 2-methyl-1-(pivaloyloxy)propyl 6-((cyclopropylmethyl)carbamoyl)-3-(2-((4-(N-((hexyloxy)carbonyl)carbamimidoyl)phenyl)carbamoyl)-5-methoxy-4-vinylphenyl)picolinate]
B (B = 1,001-10,000 ng/mL) | C=Cc1cc(C(=O)Nc2ccc(C(=N)N)cc2)c(-c2ccc(C(=O)NCC3CC3)nc2C(=O)OC(C)OC(=O)[C@@H](N)C(C)C)cc1OC.Cl (stereo partly drawn) [Compound 58f, 1-(((S)-2-amino-3-methylbutanoyl)oxy)ethyl 3-(2-((4-carbamimidoylphenyl)carbamoyl)-5-methoxy-4-vinylphenyl)-6-((cyclopropylmethyl)carbamoyl)picolinate Hydrochloride]
B (B = 1,001-10,000 ng/mL) | C=Cc1cc(C(=O)Nc2ccc(C(=N)NC(=O)OCCCCCC)cc2)c(-c2ccc(C(=O)NCC3CC3)nc2C(=O)OC(C)OC(=O)[C@@H](N)C(C)C)cc1OC.Cl (stereo partly drawn) [Compound 59b, 1-(((S)-2-amino-3-methylbutanoyl)oxy)ethyl 6-((cyclopropylmethyl)carbamoyl)-3-(2-((4-(N-((hexyloxy)carbonyl)carbamimidoyl)phenyl)carbamoyl)-5-methoxy-4-vinylphenyl)picolinate Hydrochloride]
A (A = 0-1,000 ng/mL) | C=Cc1cc(C(=O)Nc2ccc(C(=N)NC(=O)OCCCCCC)cc2)c(-c2ccc(C(=O)NCC3CC3)nc2C(=O)OCOC(=O)[C@@H](N)CCC(=O)O)cc1OC [Compound 61d, (S)-4-amino-5-(((6-((cyclopropylmethyl)carbamoyl)-3-(2-((4-(N-((hexyloxy)carbonyl)carbamimidoyl)phenyl)carbamoyl)-5-methoxy-4-vinylphenyl)picolinoyl)oxy)methoxy)-5-oxopentanoic acid]
B (B = 1,001-10,000 ng/mL) | C=Cc1cc(C(=O)Nc2ccc(C(=N)NC(=O)OCCCCCC)cc2)c(-c2ccc(C(=O)NCC3CC3)nc2C(=O)OCOC(=O)[C@@H](N)[C@@H](C)CC)cc1OC [Compound 62d, (((2S,3S)-2-amino-3-methylpentanoyl)oxy)methyl 6-((cyclopropylmethyl)carbamoyl)-3-(2-((4-(N-((hexyloxy)carbonyl)carbamimidoyl)phenyl)carbamoyl)-5-methoxy-4-vinylphenyl)picolinate]
C (C >10,000 ng/mL) | C=Cc1cc(C(=O)Nc2ccc(C(=N)NC(=O)OC(C)C)cc2)c(-c2ccc(C(=O)NCC3CC3)nc2C(=O)OC(C)OC(=O)OC(C)C)cc1OC (stereo not drawn) [Compound 63c, 1-((isopropoxycarbonyl)oxy)ethyl 6-((cyclopropylmethyl)carbamoyl)-3-(2-((4-(N-(isopropoxycarbonyl)carbamimidoyl)phenyl)carbamoyl)-5-methoxy-4-vinylphenyl)picolinate]
B (B = 1,001-10,000 ng/mL) | C=Cc1cc(C(=O)Nc2ccc(C(=N)NC(=O)OC(C)OC(=O)C(C)C)cc2)c(-c2ccc(C(=O)NCC3CC3)nc2C(=O)OCOC(=O)[C@@H](N)C(C)C)cc1OC (stereo partly drawn) [Compound 64b, (((S)-2-amino-3-methylbutanoyl)oxy)methyl 6-((cyclopropylmethyl)carbamoyl)-3-(2-((4-(N-((1-(isobutyryloxy)ethoxy)carbonyl)carbamimidoyl)phenyl)carbamoyl)-5-methoxy-4-vinylphenyl)picolinate]
B (B = 1,001-10,000 ng/mL) | C=Cc1cc(C(=O)Nc2ccc(C(=N)NC(=O)OC3COCOC3)cc2)c(-c2ccc(C(=O)NCC3CC3)nc2C(=O)OC(C)OC(=O)C(C)C)cc1OC (stereo not drawn) [Compound 65c, 1-(isobutyryloxy)ethyl 3-(2-((4-(N-(((1,3-dioxan-5-yl)oxy)carbonyl)carbamimidoyl)phenyl)carbamoyl)-5-methoxy-4-vinylphenyl)-6-((cyclopropylmethyl)carbamoyl)picolinate]
B (B = 1,001-10,000 ng/mL) | C=Cc1cc(C(=O)Nc2ccc(C(=N)NC(=O)OC(COC)COC)cc2)c(-c2ccc(C(=O)NCC3CC3)nc2C(=O)OC(C)OC(=O)C(C)C)cc1OC (stereo not drawn) [Compound 66c, 1-(isobutyryloxy)ethyl 6-((cyclopropylmethyl)carbamoyl)-3-(2-((4-(N-(((1,3-dimethoxypropan-2-yl)oxy)carbonyl)carbamimidoyl)phenyl)carbamoyl)-5-methoxy-4-vinylphenyl)picolinate]
B (B = 1,001-10,000 ng/mL) | C=Cc1cc(C(=O)Nc2ccc(C(=N)NC(=O)OC3COCOC3)cc2)c(-c2ccc(C(=O)NCC3CC3)nc2C(=O)OC(C)OC(=O)OC(C)C)cc1OC (stereo not drawn) [Compound 68a, 1-((isopropoxycarbonyl)oxy)ethyl 3-(2-((4-(N-(((1,3-dioxan-5-yl)oxy)carbonyl)carbamimidoyl)phenyl)carbamoyl)-5-methoxy-4-vinylphenyl)-6-((cyclopropylmethyl)carbamoyl)picolinate]
A (A = 0-1,000 ng/mL) | C=Cc1cc(C(=O)Nc2ccc(C(=N)NC(=O)OCCCCCC)cc2)c(-c2ccc(C(=O)NCC3CC3)nc2C(=O)OCOC(=O)[C@@H](N)Cc2ccccc2)cc1OC [Compound 69d, (S)-((2-amino-3-phenylpropanoyl)oxy)methyl 6-((cyclopropylmethyl)carbamoyl)-3-(2-((4-(N-((hexyloxy)carbonyl)carbamimidoyl)phenyl)carbamoyl)-5-methoxy-4-vinylphenyl)picolinate]
B (B = 1,001-10,000 ng/mL) | C=Cc1cc(C(=O)Nc2ccc(C(=N)NC(=O)OCCCCCC)cc2)c(-c2ccc(C(=O)NCC3CC3)nc2C(=O)OC(C)OC(=O)OC2CCCCC2)cc1OC (stereo not drawn) [Compound 70d, 1-(((cyclohexyloxy)carbonyl)oxy)ethyl 6-((cyclopropylmethyl)carbamoyl)-3-(2-((4-(N-((hexyloxy)carbonyl)carbamimidoyl)phenyl)carbamoyl)-5-methoxy-4-vinylphenyl)picolinate]
A (A = 0-1,000 ng/mL) | C=Cc1cc(C(=O)Nc2ccc(C(=N)NC(=O)OCCC(=O)O)cc2)c(-c2ccc(C(=O)NCC3CC3)nc2C(=O)OC(C)OC(=O)OC(C)C)cc1OC (stereo not drawn) [Compound 71a, 3-((((4-(2-(6-((cyclopropylmethyl)carbamoyl)-2-((1-((isopropoxycarbonyl)oxy)ethoxy)carbonyl)pyridin-3-yl)-4-methoxy-5-vinylbenzamido)phenyl)(imino)methyl)carbamoyl)oxy)propanoic acid]
B (B = 1,001-10,000 ng/mL) | C=Cc1cc(C(=O)Nc2ccc(C(=N)NC(=O)OCCCCCC)cc2)c(-c2ccc(C(=O)NCC3CC3)nc2C(=O)OCOC(=O)OC(C)C)cc1OC [Compound 72a, ((isopropoxycarbonyl)oxy)methyl 6-((cyclopropylmethyl)carbamoyl)-3-(2-((4-(N-((hexyloxy)carbonyl)carbamimidoyl)phenyl)carbamoyl)-5-methoxy-4-vinylphenyl)picolinate]
A (A = 0-1,000 ng/mL) | C=Cc1cc(C(=O)Nc2ccc(C(=N)NC(=O)OC[C@@H]3C[C@@H](O)CC(=O)O3)cc2)c(-c2ccc(C(=O)NCC3CC3)nc2C(=O)OC(C)OC(=O)C(C)C)cc1OC (stereo partly drawn) [Compound 73d, 1-(isobutyryloxy)ethyl 6-((cyclopropylmethyl)carbamoyl)-3-(2-((4-(N-((((2S,4R)-4-hydroxy-6-oxotetrahydro-2H-pyran-2-yl)methoxy)carbonyl)carbamimidoyl)phenyl)carbamoyl)-5-methoxy-4-vinylphenyl)picolinate]

Compound | AUC0-last hour (area under the curve)
C=Cc1cc(C(=O)Nc2ccc(C(=N)NC(=O)OCCC(=O)OC(C)(C)C)cc2)c(-c2ccc(C(=O)NCC3CC3)nc2C(=O)OC(C)OC(=O)OC(C)C)cc1OC (stereo not drawn) [Compound 60c, 1-((isopropoxycarbonyl)oxy)ethyl 3-(2-((4-(N-((3-(tert-butoxy)-3-oxopropoxy)carbonyl)carbamimidoyl)phenyl)carbamoyl)-5-methoxy-4-vinylphenyl)-6-((cyclopropylmethyl)carbamoyl)picolinate] | B (B = 1,001-10,000 ng/mL)
